Test results from BigSolDB 2.1.

CO/N=C1\C[C@]2(C[C@@H]3C[C@@H](C/C=C(\C)C[C@@H](C)/C=C/C=C4\CO[C@@H]5[C@H](O)C(C)=C[C@@H](C(=O)O3)[C@]45O)O2)O[C@H](/C(C)=C/C(C)C)[C@H]1C
solubility (mole fraction)
Details | 278.15 K | 283.15 K | 288.15 K | 293.15 K | 298.15 K | 303.15 K | 308.15 K | 313.15 K | 318.15 K | 323.15 K
in ethanol | 0.0532 | 0.0674 | 0.0814 | 0.097 | 0.114 | 0.133 | 0.153 | 0.173 | 0.196 | 0.223
in ethylene glycol | 0.00364 | 0.0049 | 0.00631 | 0.00796 | 0.00975 | 0.0117 | 0.0137 | 0.0157 | 0.0181 | 0.021
in isopropanol | 0.00799 | 0.0107 | 0.0139 | 0.0178 | 0.0211 | 0.0253 | 0.0296 | 0.0346 | 0.04 | 0.0455
in methanol | 0.0243 | 0.0306 | 0.0383 | 0.0454 | 0.0545 | 0.0634 | 0.0729 | 0.0822 | 0.0927 | 0.105
in water | 3.75e-06 | 5.13e-06 | 6.71e-06 | 8.61e-06 | 1.08e-05 | 1.33e-05 | 1.59e-05 | 1.85e-05 | 2.14e-05 | 2.49e-05
